Here are results for 2 substances from US20170196927A1, “COMPOSITION FOR ARTHRITIS, MOBILITY AND DELAY AGEING” (Mars, Incorporated, priority 2014, published 2017).

For one data set, the system named is cyclooxgenase-2 (COX-2). Briefly: RNA expression of COX-2 (RT-PCR) in IL-1β stimulated RAC. It counts as cell-based, Rabbit. The note with it: for Effect on COX2 expression (in words): IL-1β stimulated RAC; for COX2 Expression: relative RNA expression (untreated = 1.0), GAPDH reference, 24 h pre-treatment, IL-1β 10 ng/ml 48 h, green tea extract 50 μM, collagen 0.5 mg/ml, chondroitin 200 μg/ml. Here is the method: (§1) An in vitro study was run to evaluate the efficacy of a composition containing chondroitin, hydrolysed collagen and green tea extract on Rabbit Articular Chondrocytes (RAC). RAC were cultured in DMEM supplemented with 10% Fetal Calf Serum, glutamine and 1% penicillin/streptomycin (Gibco, Life Technologies AG, Switzerland) at 37° C. in an incubator with an atmosphere of 5% CO2.
(§2) RAC were plated in 6 well plates (3×10^5 cells/cm2). The medium was replaced with fresh medium containing each compound chondroitin, hydrolysed collagen and green tea extract or a mixture of all three compounds for 24 hours prior to stimulation with IL-1β (10 ng/ml) (Merck Millipore, USA). RAC were then incubated for 48, hours after which RNA expression of cyclooxgenase-2 (COX-2), inducible isoform Nitric oxide Synthase (iNoS) and Matrix Metallopeptidase-13 (MMP13) was measured as markers of arthritis.
(§3) NO and PGE2 production was measured using Cayman Chemicals (Bertin Pharma, France) following the manufacturer's protocol. NO production was estimated spectrophotometrically by measuring the accumulation of nitrites in the culture supernatants by Griess reaction using a standard curve prepared with sodium nitrite. PGE2 was estimated using a highly sensitive and specific Enzyme Immunoassay Kit. RNA extraction was performed by extracting RNA using the NucleoSpin™ RNA II Kit (Macherey-Nagel, Hoerdt, France) as per manufacturer's instructions. RNA was reverse-transcribed with SupersScript III (Life Technologies) and real-time polymerase chain reaction (RT-PCR) was performed with SYBR Select mix (Life Technologies). Primer sequences COX-2, iNoS and MMP13 was used to quantify the relative RNA expression. Primer sequence for GAPDH was used as the reference gene.

Data set [1] relates to inducible isoform Nitric oxide Synthase (iNoS). Briefly: RNA expression of iNoS (RT-PCR) in IL-1β stimulated RAC. The note with it: for Effect on iNos expression (in words): IL-1β stimulated RAC; for iNoS Expression: relative RNA expression (untreated = 1.0), GAPDH reference, 24 h pre-treatment, IL-1β 10 ng/ml 48 h, green tea extract 50 μM, collagen 0.5 mg/ml, chondroitin 200 μg/ml. It counts as cell-based, Rabbit. Here is the method: as §1, §2, §3

Data set [2] deals with Matrix Metallopeptidase-13 (MMP13). Briefly: RNA expression of MMP13 (RT-PCR) in IL-1β stimulated RAC. It counts as cell-based, Rabbit. As to the method:
as §1, §2
NO and PGE2 production was measured using Cayman Chemicals (Bertin Pharma, France) following the manufacturer's protocol. NO production was estimated spectrophotometrically by measuring the accumulation of nitrites in the culture supernatants by Griess reaction using a standard curve prepared with sodium nitrite. PGE2 was estimated using a highly sensitive and specific Enzyme Immunoassay Kit. […] Primer sequences COX-2, iNoS and MMP13 was used to quantify the relative RNA expression. […]

Data set [3] has as its system Rabbit Articular Chondrocytes (RAC). Briefly: Cellular viability of RAC (MTS assay and trypan blue exclusion). It counts as cell-based. As to the method:
as §1
Cellular viability was measured using an MTS assay (Cell Titer 96™ MTS, Promega, France) as per manufacturer's instructions. Cells were also counted using a Malassez cell and cellular viability was assessed using trypan blue exclusion dye technique, which colours dead cells in blue.
Rabbit Articular Chondrocytes (RAC) were incubated with the different compounds separately or blended together to evaluate their cytotoxicity.
(Tetrazolium dyes change colour on reduction, which living cells bring about.)

Read-outs that look alike come from different tables or passages of the source.

Chondroitin: in the data set on cyclooxgenase-2 (COX-2), the “Effect on COX2 expression (in words)” value is given as “seems to have no effect” and the “COX2 Expression” value is listed as 10.7. Further, in data set [1], the “Effect on iNos expression (in words)” value is given as “seems to have no effect” and the “iNoS Expression” value is 5.3. Further, the “Effect on MMP13 expression (in words)” value in data set [2] was “seems to have no effect”. Besides, the “Cellular toxicity (MTS measurements and Trypan blue exclusion)” value in data set [3] (24 and 48 hours of incubation, large range of concentration (data not shown)) is reported as “did not reveal any cellular toxicity”.
On to Collagen, for which, in the data set on cyclooxgenase-2 (COX-2), the “Effect on COX2 expression (in words)” value is given as “decreases the expression” and the “COX2 Expression” value is given as 7.1. Further, in data set [1], the “Effect on iNos expression (in words)” value is listed as “decreases the expression” and the “iNoS Expression” value is 3.9. In data set [2], the “Effect on MMP13 expression (in words)” value is recorded as “decreases the expression”. Besides, the “Cellular toxicity (MTS measurements and Trypan blue exclusion)” value in data set [3] is given as “did not reveal any cellular toxicity”.
